Reference: ChEMBL document CHEMBL1137773, “Novel lead structures for p38 MAP kinase via FieldScreen virtual screening” (J Med Chem, 2009)

Legend:
[1] = Inhibition of p38 MAPK at 10 uM by ELISA
[2] = Inhibition of p38 MAPK by ELISA

COc1ccc(OCc2nn3c(-c4ccc(Cl)cc4Cl)nnc3s2)cc1
inhibition [1]: 31%

CCn1c(SCc2ccccc2Cl)nc2ccccc2c1=O
inhibition [1]: 28%

Cc1sc2ncnc(SCC(=O)c3ccc(F)cc3)c2c1C
inhibition [1]: 24%

Cc1ccc(NC(=O)Nc2c(Cl)cccc2Cl)c2c1CC(C)(C)O2
inhibition [1]: 66%

Cc1nnc2sc(COc3ccccc3)nn12
inhibition [1]: 18%

Cn1nc(CC(=O)Nc2ccc(Br)cc2)c2ccccc2c1=O
inhibition [1]: 15%

CC(C)(C)c1nnc2sc(COc3ccc(F)cc3)nn12
inhibition [1]: 53% | IC50 [2]: 4710 nM

CC(C)(C)c1ccc(OCc2nn3c(Cc4ccccc4)nnc3s2)cc1
inhibition [1]: 12%

Clc1ccccc1-c1nnc2sc(COc3ccccc3)nn12
inhibition [1]: 76% | IC50 [2]: 790 nM

CC1Cc2nc(SCC(N)=O)n(-c3ccc(F)cc3)c(=O)c2S1 (stereo unspecified)
inhibition [1]: 4%

COc1ccccc1Cc1nnc2sc(COc3ccccc3)nn12
inhibition [1]: 77% | IC50 [2]: 740 nM

COc1ccc(OCc2nnc3sc(-c4ccccc4Cl)nn23)cc1
inhibition [1]: 34%

COc1ccccc1NC1CC(=O)N(c2ccc(Cl)cc2)C1=O (stereo unspecified)
inhibition [1]: 20%

c1ccc(CCc2nn3c(-c4ccncc4)nnc3s2)cc1
inhibition [1]: 26%

Clc1ccccc1-c1nnc2sc(CCc3ccccc3)nn12
inhibition [1]: 72% | IC50 [2]: 2550 nM

CC(C)(C)c1nnc2sc(COc3ccccc3)nn12
inhibition [1]: 61% | IC50 [2]: 3980 nM

COc1ccccc1Cc1nnc2sc(COc3ccc(F)cc3)nn12
inhibition [1]: 79% | IC50 [2]: 650 nM

Cc1occc1-c1nnc2sc(C(C)Oc3ccccc3)nn12 (stereo unspecified)
inhibition [1]: 30%

NC(=O)C(c1ccc(Cl)cc1)c1ccc(C(=O)c2ccccc2)cc1 (stereo unspecified)
inhibition [1]: 26%

CCc1cc2c(SCC(=O)Nc3ccc(Br)cc3)ncnc2s1
inhibition [1]: 14%

CCSc1ccccc1C(=O)N1CCc2ccccc21
inhibition [1]: 4%

FC(F)(F)c1nnc2sc(COc3ccccc3)nn12
inhibition [1]: 16%

Cc1ccccc1Cc1nnc2sc(COc3ccc(F)cc3)nn12
inhibition [1]: 36%

Cc1nn(Cc2ccccc2)c2c1C(c1ccc(Br)cc1)C(C#N)=C(N)O2 (stereo unspecified)
inhibition [1]: 40%

Fc1ccc(OCc2nn3c(Cc4ccccc4)nnc3s2)cc1
inhibition [1]: 32%

Cc1cccc(CC(=O)N(c2ccc(Br)cc2)C2C=CS(=O)(=O)C2)c1 (stereo unspecified)
inhibition [1]: 2%

Cc1ccc(CNC(=O)CN(c2cccc(Cl)c2)S(C)(=O)=O)cc1
inhibition [1]: 1%

CCC(O)Cc1nc(N)c(C#N)c(-c2ccccc2OC)c1C (stereo unspecified)
inhibition [1]: 20%

Cc1cc(-c2nnc3sc(COc4ccc(F)cc4)nn23)n(C)n1
inhibition [1]: 22%

Fc1ccccc1-c1nnc2sc(COc3ccccc3)nn12
inhibition [1]: 73% | IC50 [2]: 3080 nM

Cc1sc(NC(=O)c2ccc(Cl)cc2)c(C(=O)c2ccccc2)c1C
inhibition [1]: 31%

Fc1ccc(-c2nnc3sc(CCc4ccccc4)nn23)cc1
inhibition [1]: 32%

O=C(Nc1ccc(F)cc1)c1cccc(S(=O)(=O)Nc2ccccc2)c1
inhibition [1]: 15%

CCC(Oc1ccccc1)c1nn2c(-c3ccoc3C)nnc2s1 (stereo unspecified)
inhibition [1]: 31%

Cc1onc(-c2c(Cl)cccc2Cl)c1C(=O)N1CCCCC1C (stereo unspecified)
inhibition [1]: 14%

Cc1occc1-c1nnc2sc(COc3ccc(F)cc3)nn12
inhibition [1]: 21%

CC(C)(Oc1ccccc1)c1nn2c(-c3ccoc3)nnc2s1
inhibition [1]: 24%

COc1cccc(OCc2nn3c(-c4ccccc4)nnc3s2)c1
inhibition [1]: 11%

Cc1cccc(OCc2nn3c(-c4ccccc4Cl)nnc3s2)c1
inhibition [1]: 76% | IC50 [2]: 1980 nM

Brc1ccccc1-c1nnc2sc(COc3ccccc3)nn12
inhibition [1]: 80% | IC50 [2]: 1240 nM

COc1ccc(Cc2nn3c(-c4ccccc4Cl)nnc3s2)cc1
inhibition [1]: 83% | IC50 [2]: 440 nM

O=C(c1cn(Cc2ccccc2F)c2ccccc12)C1CC1
inhibition [1]: 23%

C=CCNc1sc(C(=O)c2ccc(F)cc2)c(N)c1C#N
inhibition [1]: 46%

COc1ccc(-c2nnc3sc(COc4ccc(F)cc4)nn23)cc1
inhibition [1]: 31%

c1ccc(OCc2nn3c(-c4ccccc4)nnc3s2)cc1
inhibition [1]: 39%

CC(C)Oc1ccc(OCCSc2nc(=O)c3ccccc3[nH]2)cc1
inhibition [1]: 23%

CCc1ccc(OCC(=O)Nc2cccc3nc(C)ccc23)cc1
inhibition [1]: 4%

CCOC(=O)C(C)Sc1nc2c(c(=O)n1-c1ccc(F)cc1)SCC2 (stereo unspecified)
inhibition [1]: 23%

Cc1ccccc1Cc1nnc2sc(COc3ccccc3)nn12
inhibition [1]: 33%

Clc1ccc(-c2nnc3sc(CCc4ccccc4)nn23)c(Cl)c1
inhibition [1]: 45%

Cc1ccccc1OCc1nn2c(-c3ccccc3Cl)nnc2s1
inhibition [1]: 65% | IC50 [2]: 3510 nM

Oc1ccc2ccccc2c1C1NN=C(c2ccccc2)S1 (stereo unspecified)
inhibition [1]: 21%

COc1ccc(OCc2nn3c(-c4ccccc4Cl)nnc3s2)cc1
inhibition [1]: 64% | IC50 [2]: 3880 nM

Clc1cccc(-c2nnc3sc(COc4ccccc4)nn23)c1
inhibition [1]: 3%
